Tests used:
MCF7 = test: cells; settings: Homo sapiens, MCF7, 24 h
Description: Cytotoxicity against human MCF7 cells assessed as cell survivability after 24 hrs by crystal violet staining based microscopic analysis

Carbonic anhydrase 9 = Carbonic anhydrase 9 (Homo sapiens, UniProt Q16790)
Description: Inhibition of human recombinant CA9 preincubated for 15 mins prior to testing by stopped flow CO2 hydrase assay

| SMILES | IC50 (MCF7) [µM] | Ki (Carbonic anhydrase 9) [µM] |
| --- | --- | --- |
| CN(C)c1ccc(-c2nc(NNc3csc(Nc4ccc(S(N)(=O)=O)cc4)n3)[nH]c(=O)c2C#N)cc1 | 89.7 | – |
| NS(=O)(=O)c1ccc(Nc2nc(Nc3ccc(C(=O)O)cc3)cs2)cc1 | 22.1 | 0.0088 |
| NS(=O)(=O)c1ccc(Nc2nc(NN3C(=O)/C(=C/c4ccc(Cl)cc4)N=C3c3ccccc3)cs2)cc1 | > 150 | 0.0292 |
| NS(=O)(=O)c1ccc(Nc2csc(Nc3ccc(S(N)(=O)=O)cc3)n2)cc1 | 21.5 | 0.0073 |
| N#Cc1c(-c2ccc(Cl)cc2)nc(Sc2csc(Nc3ccc(S(N)(=O)=O)cc3)n2)[nH]c1=O | 86.6 | – |
| NC(N)=NS(=O)(=O)c1ccc(N/N=C2\SC(Nc3ccc(S(N)(=O)=O)cc3)=NC2=O)cc1 | 11.9 | 0.0085 |
| NS(=O)(=O)c1ccc(Nc2nc(Nc3ccc(F)cc3)cs2)cc1 | 12 | 0.0056 |
| N#Cc1c(-c2ccccc2)nc(Sc2csc(Nc3ccc(S(N)(=O)=O)cc3)n2)[nH]c1=O | > 150 | – |
| NS(=O)(=O)c1ccc(Nc2nc(NN3C(=O)/C(=C/c4ccccc4)N=C3c3ccc(Cl)cc3)cs2)cc1 | > 150 | – |
| NS(=O)(=O)c1ccc(NC2=NC(=O)/C(=N/Nc3ccc(Cl)cc3)S2)cc1 | 10.7 | – |
| NS(=O)(=O)c1ccc(NC2=NC(=O)/C(=N/Nc3ccc(C(=O)O)cc3)S2)cc1 | 5.45 | 0.0064 |
| CN(C)c1ccc(/C=C2\N=C(c3ccccc3)N(Nc3csc(Nc4ccc(S(N)(=O)=O)cc4)n3)C2=O)cc1 | 38.9 | – |
| NS(=O)(=O)c1ccc(Nc2nc(NN3C(=O)/C(=C/c4ccccc4)N=C3c3ccccc3)cs2)cc1 | 45.9 | – |
| NS(=O)(=O)c1ccc(N/N=C2\SC(Nc3ccc(S(N)(=O)=O)cc3)=NC2=O)cc1 | 2.79 | 0.0058 |
| NS(=O)(=O)c1ccc(Nc2nc(NN3C(=O)/C(=C/c4ccc(Cl)cc4)N=C3c3ccc(Cl)cc3)cs2)cc1 | 136 | – |
| NS(=O)(=O)c1ccc(Nc2nc(N3CCCCC3)cs2)cc1 | 24.3 | 0.0067 |
| N#Cc1c(-c2ccccc2)nc(NNc2csc(Nc3ccc(S(N)(=O)=O)cc3)n2)[nH]c1=O | > 150 | 0.0065 |
| CN(C)c1ccc(-c2nc(Sc3csc(Nc4ccc(S(N)(=O)=O)cc4)n3)[nH]c(=O)c2C#N)cc1 | 85 | – |
| CN(C)c1ccc(/C=C2\N=C(c3ccc(Cl)cc3)N(Nc3csc(Nc4ccc(S(N)(=O)=O)cc4)n3)C2=O)cc1 | 44.5 | – |
| N#Cc1c(-c2ccc(Cl)cc2)nc(NNc2csc(Nc3ccc(S(N)(=O)=O)cc3)n2)[nH]c1=O | > 150 | – |
| O=c1[nH]cc(F)c(=O)[nH]1 [FLUOROURACIL] | 11.1 | – |

Source: ChEMBL document CHEMBL3808361, “Synthesis of 4-(thiazol-2-ylamino)-benzenesulfonamides with carbonic anhydrase I, II and IX inhibitory activity and cytotoxic effects against breast cancer cell lines” (Bioorg Med Chem, 2016)
